Assay results taken from patent US20210379210A1, “RADIOLIGANDS FOR IMAGING THE LPA1 RECEPTOR” (BRISTOL-MYERS SQUIBB COMPANY, priority 2018, published 2021).
Several values for one entry are separate records, joined by “and”; a condition that tells them apart may be missing. Identical values can stand only once. Like-named read-outs stand apart in the source and are kept apart here.

How the values were obtained:
[1] = molecular target: LPA1 (Rattus norvegicus, UniProt P61794); assay: In-vivo PET imaging, lung uptake in wild type and bleomycin treated rats; details: for Lung uptake (% ID/g) @ 60-90 min: baseline PET scan, listed as [^18F]-(1S,3S)-3-(6-(5-((((4-(fluoro)butyl)(methyl)carbamoyl)oxy)methyl)-1-meth))
Sequence of LPA1 (P61794 whole entry): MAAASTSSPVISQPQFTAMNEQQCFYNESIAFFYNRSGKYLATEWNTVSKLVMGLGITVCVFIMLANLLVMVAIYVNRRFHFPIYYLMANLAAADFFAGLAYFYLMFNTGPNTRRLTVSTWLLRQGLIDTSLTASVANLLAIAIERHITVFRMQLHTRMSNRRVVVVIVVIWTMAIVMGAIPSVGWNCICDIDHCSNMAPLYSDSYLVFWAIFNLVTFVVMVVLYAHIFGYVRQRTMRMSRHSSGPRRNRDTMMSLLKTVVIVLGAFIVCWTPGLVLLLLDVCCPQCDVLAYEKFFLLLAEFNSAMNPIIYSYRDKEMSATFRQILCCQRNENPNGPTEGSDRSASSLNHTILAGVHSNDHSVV
Method: (§1) [^18F]-(1S,3S)-3-(((6-(5-((((4-(fluoro)butyl)(methyl)carbamoyl)oxy)methyl)-1-methyl-1H-1,2,3-triazol-4-yl)-2-methylpyridin-3-yl)oxy)cyclohexane-1-carboxylic acid was tested to confirm its properties, specificity and targeting of the LPA1 receptor in aged-matched wild type (Sprague Dawley rat, Charles River Laboratory, PA) and bleomycin-induced pulmonary fibrosis rat models. The bleomycin-induced pulmonary fibrosis rat model was generated in anesthetized rats that were administered bleomycin (2 μL/g) via oropharyngeal instillation. For oropharyngeal instillation, anesthetized rats (isoflurane, 4% in 100% 02) were placed on a slanted board/tilting workstation and bleomycin was dripped onto the vocal cords, facilitating aspiration. Rats were then returned to their cages until they fully recovered from anesthesia and were monitored daily for the duration of the experiment. In this experiment, the [^18F]-labeled LPA1 antagonist, produced as described in the above Examples, was tested for its ability to discriminate between normal lung in wild type rats and increased lung LPA1 expression in the bleomycin rat disease model. The bleomycin treated rats were used at 14 and 15 days post bleomycin treatment. PET images were acquired at 14 days (baseline) and 15 days (blocking with a 10 mg/kg oral dose of an LPA1 antagonist administered 30 minutes before PET scan). Two groups of rats were used in the PET imaging study—aged matched wild type rats (Group 1, n=4) and bleomycin treated rats (Group 2, n=4). All animals received a baseline PET imaging scan and a repeat PET imaging scan following a single 10 mg/kg oral dose of an LPA1 antagonist. For PET image acquisition, rats were placed in an anesthetic induction chamber and 3% isoflurane inhalant anesthesia was delivered in 100% O2 at a rate of 1-1.5 L/min. Once sedated, the rats were removed from the induction chamber and placed into a plexiglass 2-chamber holder (custom-made by BMS-Applied Biotechnology group) within the gantry of the PET system (microPET® F220™, Siemens Preclinical Solutions, Knoxville, Tenn.) where they remained for the duration of the study. Anesthesia was maintained with 1-1.5% isoflurane inhalant anesthesia delivered in 100% 02 at a rate of 2 L/min via the nose-cone. Animals were kept warm using an external standalone temperature regulating unit (M2M Imaging Corp) to prevent hypothermia during imaging. Rat respiration was continuously monitored during imaging procedures and isoflurane was adjusted dependent on depth of anesthesia. A 10-minute transmission image was first acquired using a ^57Co point source for the purpose of attenuation correction of the final PET images and confirmation of lung localization for region of interest (ROI) analysis. The scanning region was located beginning at the neck area and extending toward the hind limbs of each animal in order to place the lungs within the 7.6 cm microPET system axial field of view (FOV). Upon completion of the transmission scan, each rat received administration of between 19.5-29.7 MBq (542-803 μCi) of [^18F]-(1S,3S)-3-(((6-(5-((((4-(fluoro)butyl)(methyl) carbamoyl)oxy)methyl)-1-methyl-1H-1,2,3-triazol-4-yl)-2-methylpyridin-3-yl)oxy)cyclohexane-1-carboxylic acid tracer via tail vein catheter followed by a 2 hour dynamic PET emission scan. For blocking studies, the same protocol was flowed 30 minutes after a 10 mg/kg oral dose of an LPA1 antagonist. Images were reconstructed using a maximum a posteriori (MAP) algorithm with attenuation correction using the collected transmission images and corrected for radioisotope decay. The PET images were then co-registered with corresponding transmission images using anatomical landmarks (air in lung) and boundaries of the animal holder. Images were analyzed by Inveon Research Workstation (Siemens Medical Solutions USA Inc., PA). Analysis for each rat was done with regions of interest (ROIs) drawn onto each whole lung and a section of the liver using the co-registered transmission images. […]

[2] = as above; parameters: species or system rat; details: Sprague Dawley, rat, lung, intravenous
Method: as §1

Structure (SMILES): Cc1nc(-c2nnn(C)c2COC(=O)N(C)CCCC[18F])ccc1O[C@H]1CCC[C@H](C(=O)O)C1 [Example 16]
- increase in the lung radioligand signal in disease induced model vs wild type animals ([1]; bleomycin treated vs wild type rats, baseline, p<0.05): 46%
- Lung uptake (% ID/g) @ 60-90 min ([1]; individual bleomycin treated rats (Group 2), 14 days post bleomycin): 0.142 % ID/g and 0.118 % ID/g and 0.088 % ID/g
- Lung uptake (% ID/g) @ 60-90 min ([1]; individual wild type rats (Group 1)): 0.075 % ID/g and 0.063 % ID/g and 0.095 % ID/g
- tissue uptake ([2]; bleomycin treated rats (Group 2, n=4), baseline, 60-90 minutes post injection, read-out: mean and standard error of radiotracer uptake in lung tissue): 0.116 %ID/g
- tissue uptake ([2]; individual bleomycin treated rats (Group 2), baseline PET scan, 14 days post bleomycin, read-out: Lung uptake (% ID/g) @ 60-90 min): 0.116 %ID/g
- tissue uptake ([2]; individual wild type rats (Group 1), baseline PET scan, read-out: Lung uptake (% ID/g) @ 60-90 min): 0.085 %ID/g
- tissue uptake ([2]; wild type rats (Group 1, n=4), baseline, 60-90 minutes post injection, read-out: mean and standard error of radiotracer uptake in lung tissue): 0.08 %ID/g
